Holding throughout (format): biochemical
Assay [1] addresses T1, human JAK1 (a.a. 837-1142) (Homo sapiens, UniProt P23458).
T1 construct: human JAK1 (a.a. 837-1142); His tag (N); made in house; host or cells: insect cells (baculovirus)
Description: In vitro JAK kinase assay (HTRF, phosphorylation of a biotinylated peptide), JAK1. The settings on record: Table B1; read-out: JAK1 IC50. The essentials:
(§1)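 Kinase reactions ran at room temperature for 1 h with ATP matched per isoform (JAK1 90 μM, JAK2 30 μM, JAK3 3 μM). After an EDTA stop, the phosphorylated biotin-peptide was read by HTRF using Eu-Py20 and SA-APC after 40 min binding.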
In general terms: Time-resolved FRET reads energy transfer from a long-lived donor to a nearby acceptor.

Assay [2] deals with T2, human JAK2 (a.a. 828-1132) (Homo sapiens, UniProt O60674).
T2 construct: JAK2 (a.a. 828-1132); His tag (N); made in house; host or cells: insect cells (baculovirus)
T2 sequence (O60674 828-1132): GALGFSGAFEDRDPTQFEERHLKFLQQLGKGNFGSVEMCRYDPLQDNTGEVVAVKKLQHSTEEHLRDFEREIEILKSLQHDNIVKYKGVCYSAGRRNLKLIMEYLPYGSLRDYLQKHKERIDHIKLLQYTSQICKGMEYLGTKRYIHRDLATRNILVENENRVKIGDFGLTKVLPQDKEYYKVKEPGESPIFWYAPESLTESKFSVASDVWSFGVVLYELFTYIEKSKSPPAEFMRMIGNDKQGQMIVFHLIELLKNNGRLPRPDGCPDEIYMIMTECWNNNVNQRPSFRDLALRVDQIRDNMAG
Nature of the assay: In vitro JAK kinase assay (HTRF, phosphorylation of a biotinylated peptide), JAK2. The settings on record: Table B1. In short, it runs like this:
as §1

Assay [3] deals with T3, human JAK3 (a.a. 781-1124) (Homo sapiens, UniProt P52333).
T3 construct: JAK3 (a.a. 781-1124); His tag (N); made in house; host or cells: insect cells (baculovirus)
T3 sequence (P52333 781-1124): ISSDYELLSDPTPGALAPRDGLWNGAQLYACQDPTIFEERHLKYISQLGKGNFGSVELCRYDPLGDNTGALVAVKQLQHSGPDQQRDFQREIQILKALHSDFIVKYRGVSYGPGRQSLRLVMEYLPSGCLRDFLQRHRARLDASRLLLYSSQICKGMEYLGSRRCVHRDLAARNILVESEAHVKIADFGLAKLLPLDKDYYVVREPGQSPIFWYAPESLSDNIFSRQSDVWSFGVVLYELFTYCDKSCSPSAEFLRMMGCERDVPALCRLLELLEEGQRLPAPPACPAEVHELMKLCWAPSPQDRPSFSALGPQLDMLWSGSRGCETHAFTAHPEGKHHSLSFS
Nature of the assay: In vitro JAK kinase assay (HTRF, phosphorylation of a biotinylated peptide), JAK3. The settings on record: Table B1. In short, it runs like this:
as §1

A further assay addresses TYK2 (Homo sapiens, UniProt P29597). Description: TYK2 kinase inhibition (Table A1). As to conditions: Table B1.
Assay [4] concerns the target T4, Recombinant Human Anaplastic Lymphoma Kinase (Homo sapiens, UniProt Q9UM73).
T4 construct: purchased Invitrogen, Carlsbad, Calif
Nature of the assay: ALK HTRF kinase assay. The settings on record: compound at a concentration of 500 nM or 1 mM (not specified); cells shown as percentage. The essentials:
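Biotinylated peptide substrate, recombinant human ALK; detection via europium-chelate antibody to phosphotyrosine paired with streptavidin-APC. Potency expressed as IC50 from four-parameter curve fitting.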

Structures can show the parent of a compound that is named as a salt.

TYK2, sequence (P29597 whole entry): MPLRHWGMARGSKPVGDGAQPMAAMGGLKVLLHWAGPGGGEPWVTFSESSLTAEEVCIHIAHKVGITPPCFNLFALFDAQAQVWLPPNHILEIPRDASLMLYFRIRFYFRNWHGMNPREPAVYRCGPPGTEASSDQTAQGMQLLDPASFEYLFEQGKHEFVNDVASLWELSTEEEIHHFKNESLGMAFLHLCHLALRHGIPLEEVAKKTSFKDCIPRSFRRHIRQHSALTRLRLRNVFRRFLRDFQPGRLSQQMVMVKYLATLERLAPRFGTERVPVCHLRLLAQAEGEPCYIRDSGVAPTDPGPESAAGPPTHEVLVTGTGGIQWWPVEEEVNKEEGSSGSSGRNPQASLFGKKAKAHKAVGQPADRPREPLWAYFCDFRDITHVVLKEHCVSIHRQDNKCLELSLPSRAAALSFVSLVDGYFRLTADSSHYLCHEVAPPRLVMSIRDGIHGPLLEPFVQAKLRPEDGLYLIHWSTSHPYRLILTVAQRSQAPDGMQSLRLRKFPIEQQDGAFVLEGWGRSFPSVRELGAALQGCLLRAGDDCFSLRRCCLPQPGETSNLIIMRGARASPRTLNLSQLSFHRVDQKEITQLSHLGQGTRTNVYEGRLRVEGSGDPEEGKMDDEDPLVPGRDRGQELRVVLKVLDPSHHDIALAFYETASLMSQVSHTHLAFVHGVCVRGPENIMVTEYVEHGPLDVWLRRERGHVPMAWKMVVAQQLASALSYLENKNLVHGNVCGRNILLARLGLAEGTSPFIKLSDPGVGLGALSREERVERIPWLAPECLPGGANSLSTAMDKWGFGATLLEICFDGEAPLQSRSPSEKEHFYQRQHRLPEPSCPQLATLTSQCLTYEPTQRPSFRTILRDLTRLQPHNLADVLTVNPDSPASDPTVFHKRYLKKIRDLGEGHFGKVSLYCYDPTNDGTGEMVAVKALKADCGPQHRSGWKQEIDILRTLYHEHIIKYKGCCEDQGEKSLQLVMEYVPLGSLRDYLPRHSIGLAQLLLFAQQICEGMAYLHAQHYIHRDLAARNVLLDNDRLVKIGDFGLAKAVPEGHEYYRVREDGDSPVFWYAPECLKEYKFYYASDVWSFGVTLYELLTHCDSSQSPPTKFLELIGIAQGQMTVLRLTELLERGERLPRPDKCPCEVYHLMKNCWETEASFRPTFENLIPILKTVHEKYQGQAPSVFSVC
T4 sequence (Q9UM73 19-1620): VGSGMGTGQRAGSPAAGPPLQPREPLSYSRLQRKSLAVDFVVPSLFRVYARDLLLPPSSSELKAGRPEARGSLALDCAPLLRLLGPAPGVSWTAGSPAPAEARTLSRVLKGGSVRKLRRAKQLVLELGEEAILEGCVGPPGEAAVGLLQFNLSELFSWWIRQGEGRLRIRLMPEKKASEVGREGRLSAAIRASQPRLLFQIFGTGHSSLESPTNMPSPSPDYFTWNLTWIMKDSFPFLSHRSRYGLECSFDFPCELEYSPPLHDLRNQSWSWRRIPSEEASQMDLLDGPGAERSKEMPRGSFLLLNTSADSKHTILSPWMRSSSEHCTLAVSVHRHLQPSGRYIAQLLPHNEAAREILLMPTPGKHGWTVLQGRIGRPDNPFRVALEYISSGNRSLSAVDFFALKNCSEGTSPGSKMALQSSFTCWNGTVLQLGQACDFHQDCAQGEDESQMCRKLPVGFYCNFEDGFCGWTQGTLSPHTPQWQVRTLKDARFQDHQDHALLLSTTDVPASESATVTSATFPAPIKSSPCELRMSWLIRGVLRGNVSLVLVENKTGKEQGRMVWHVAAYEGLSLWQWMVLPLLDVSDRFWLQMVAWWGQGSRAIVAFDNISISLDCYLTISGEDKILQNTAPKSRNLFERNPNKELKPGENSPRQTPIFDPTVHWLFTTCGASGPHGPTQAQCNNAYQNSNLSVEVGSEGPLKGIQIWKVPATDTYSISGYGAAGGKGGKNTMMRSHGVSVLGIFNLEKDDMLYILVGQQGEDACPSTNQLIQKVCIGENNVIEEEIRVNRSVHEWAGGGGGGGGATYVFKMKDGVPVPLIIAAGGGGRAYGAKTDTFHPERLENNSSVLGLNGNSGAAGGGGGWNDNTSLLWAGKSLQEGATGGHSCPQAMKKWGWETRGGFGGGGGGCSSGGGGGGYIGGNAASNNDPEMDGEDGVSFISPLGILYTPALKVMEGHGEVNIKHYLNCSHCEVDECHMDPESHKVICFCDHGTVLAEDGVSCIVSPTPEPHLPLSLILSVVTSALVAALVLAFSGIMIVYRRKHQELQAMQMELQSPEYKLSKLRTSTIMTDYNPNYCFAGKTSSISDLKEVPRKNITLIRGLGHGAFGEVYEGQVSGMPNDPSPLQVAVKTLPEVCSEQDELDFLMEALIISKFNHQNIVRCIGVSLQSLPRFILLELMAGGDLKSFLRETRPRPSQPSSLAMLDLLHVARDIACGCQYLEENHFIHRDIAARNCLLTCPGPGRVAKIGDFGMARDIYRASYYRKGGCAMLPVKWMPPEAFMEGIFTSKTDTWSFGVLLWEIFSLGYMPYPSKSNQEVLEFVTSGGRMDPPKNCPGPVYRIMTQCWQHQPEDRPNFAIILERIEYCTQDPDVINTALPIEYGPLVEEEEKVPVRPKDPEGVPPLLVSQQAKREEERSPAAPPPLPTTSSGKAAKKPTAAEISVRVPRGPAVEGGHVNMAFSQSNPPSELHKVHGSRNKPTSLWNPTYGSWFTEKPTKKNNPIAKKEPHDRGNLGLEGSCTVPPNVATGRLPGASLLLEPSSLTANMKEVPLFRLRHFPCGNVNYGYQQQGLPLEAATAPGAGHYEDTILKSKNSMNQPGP
T1 sequence (P23458 849-1154): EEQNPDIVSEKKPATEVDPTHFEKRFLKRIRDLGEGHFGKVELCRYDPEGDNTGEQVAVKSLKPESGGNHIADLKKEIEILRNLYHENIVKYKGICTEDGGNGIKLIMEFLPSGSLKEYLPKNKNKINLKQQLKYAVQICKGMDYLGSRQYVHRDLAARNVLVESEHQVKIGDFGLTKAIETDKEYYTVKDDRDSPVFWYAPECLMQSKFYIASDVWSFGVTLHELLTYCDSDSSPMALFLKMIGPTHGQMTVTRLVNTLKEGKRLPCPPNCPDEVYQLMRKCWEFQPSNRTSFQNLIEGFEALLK

`O=C(NCCN1CCCC1=O)Nc1ccc2cc1CCc1cccc(c1)Nc1ncc(Cl)c(n1)N2` [Example B257, N-[6-Chloro-2,4,8,22-tetraazatetracyclo[14.3.1.1(3,7).1(9,13)]docosa-1(20),3(22),4,6,9(21),10,12,16,18-nonaen-12-yl]-N′-[2-(2-oxopyrrolidin-1-yl)ethyl]urea trifluoroacetate]: the IC50 in assay [1] came to 0.0073 µM; in assay [2], 0.0095 µM; in assay [3] it was 0.064 µM; at TYK2, 0.018 µM. Further, the “ALK % of inhibition at a concentration of 500 nM or 1 mM” value (shortened to “ALK % of inhibition”) in assay [4] amounted to 14%.
On to `O=C(NCCN1CCCCC1)Nc1ccc2cc1CCc1cccc(c1)Nc1ncc(Cl)c(n1)N2` [Example B258, N-[6-Chloro-2,4,8,22-tetraazatetracyclo[14.3.1.1(3,7).1(9,13)]docosa-1(20),3(22),4,6,9(21),10,12,16,18-nonaen-12-yl]-N′-(2-piperidin-1-ylethyl)urea bis(trifluoroacetate)], for which the IC50 in assay [1] amounted to 0.0049 µM; in assay [2], 0.01 µM; in assay [3], 0.083 µM; at TYK2 it was 0.024 µM. Moreover, the “ALK % of inhibition” value in assay [4] amounted to 29%.
As to `CC(C)(C)OC(=O)N1CCN(CCNC(=O)Nc2ccc3cc2CCc2cccc(c2)Nc2ncc(Cl)c(n2)N3)CC1` [Example B259, tert-Butyl 4-{2-[({[6-chloro-2,4,8,22-tetraazatetracyclo[14.3.1.1(3,7).1(9,13)]docosa-1(20),3(22),4,6,9(21),10,12,16,18-nonaen-12-yl]amino}carbonyl)amino]ethyl}piperazine-1-carboxylate], the IC50 stood at 0.0038 µM in assay [1], 0.007 µM in assay [2], 0.052 µM in assay [3] and 0.023 µM at TYK2. For the same compound, in assay [4], the “ALK % of inhibition” value was determined as 13%.
On the same counts, the results for `O=C(NCCN1CCNCC1)Nc1ccc2cc1CCc1cccc(c1)Nc1ncc(Cl)c(n1)N2` [Example B260, N-[6-Chloro-2,4,8,22-tetraazatetracyclo[14.3.1.1(3,7).1(9,13)]docosa-1(20),3(22),4,6,9(21),10,12,16,18-nonaen-12-yl]-N′-(2-piperazin-1-ylethyl)urea trihydrochloride] are 0.0047 µM, 0.0099 µM, 0.051 µM, 0.02 µM and 26%.
On the same counts, the results for `CN1CC[C@H](NC(=O)Nc2ccc3cc2CCc2cccc(c2)Nc2ncc(Cl)c(n2)N3)C1` [Example B261, N-[6-Chloro-2,4,8,22-tetraazatetracyclo[14.3.1.1(3,7).1(9,13)]docosa-1(20),3(22),4,6,9(21),10,12,16,18-nonaen-12-yl]-N′-[(3S)-1-methylpyrrolidin-3-yl]urea bis(trifluoroacetate)] are 0.0095 µM, 0.029 µM, 0.081 µM, 0.081 µM and 24%.
With `O=C(Nc1ccc2cc1CCc1cccc(c1)Nc1ncc(Cl)c(n1)N2)N[C@H]1CCN(c2ncccn2)C1` [Example B262, N-[6-Chloro-2,4,8,22-tetraazatetracyclo[14.3.1.1(3,7).1(9,13)]docosa-1(20),3(22),4,6,9(21),10,12,16,18-nonaen-12-yl]-N′-[(3S)-1-pyrimidin-2-ylpyrrolidin-3-yl]urea bis(trifluoroacetate)], the IC50 was 0.0026 µM in assay [1], 0.0047 µM in assay [2], 0.038 µM in assay [3] and 0.0087 µM at TYK2. Also, the “ALK % of inhibition” value in assay [4] is on record as 19%.
On the same counts, the results for `Cc1cc(C(=O)N2CCC(NC(=O)Nc3ccc4cc3CCc3cccc(c3)Nc3ncc(Cl)c(n3)N4)CC2)no1` [Example B263, N-[6-Chloro-2,4,8,22-tetraazatetracyclo[14.3.1.1(3,7).1(9,13)]docosa-1(20),3(22),4,6,9(21),10,12,16,18-nonaen-12-yl]-N′-{1-[(5-methylisoxazol-3-yl)carbonyl]piperidin-4-yl}urea trifluoroacetate] are 0.0067 µM, 0.0093 µM, 0.11 µM, 0.022 µM and 29%.
`Cc1oncc1C(=O)N1CCC(NC(=O)Nc2ccc3cc2CCc2cccc(c2)Nc2ncc(Cl)c(n2)N3)CC1` [Example B264, N-[6-chloro-2,4,8,22-tetraazatetracyclo[14.3.1.1(3,7).1(9,13)]docosa-1(20),3(22),4,6,9(21),10,12,16,18-nonaen-12-yl]-N′-{1-[(5-methylisoxazol-4-yl)carbonyl]piperidin-4-yl}urea trifluoroacetate]: the IC50 came out at 0.014 µM in assay [1], 0.025 µM in assay [2], 0.216 µM in assay [3] and 0.054 µM on TYK2. For the same compound, the “ALK % of inhibition” value in assay [4] is 27%.
On the same counts, the results for `Cc1cc(C(=O)N2CC[C@H](NC(=O)Nc3ccc4cc3CCc3cncc(c3)Nc3ncc(Cl)c(n3)N4)C2)no1` [Example B265, N-[6-Chloro-2,4,8,18,22-pentaazatetracyclo[14.3.1.1(3,7).1(9,13)]docosa-1(20),3(22),4,6,9(21),10,12,16,18-nonaen-12-yl]-N′-{(3S)-1-[(5-methylisoxazol-3-yl)carbonyl]pyrrolidin-3-yl}urea bis(trifluoroacetate)] are 0.014 µM, 0.141 µM, 0.085 µM, 0.015 µM and 23%.
In the case of `O=C(Nc1ccc2cc1CCc1cncc(c1)Nc1ncc(Cl)c(n1)N2)N[C@H]1CCN(C(=O)c2cn[nH]c2)C1` [Example B267, N-[6-chloro-2,4,8,18,22-pentaazatetracyclo[14.3.1.1(3,7).1(9,13)]docosa-1(20),3(22),4,6,9(21),10,12,16,18-nonaen-12-yl]-N′-[(3S)-1-(1H-pyrazol-4-ylcarbonyl)pyrrolidin-3-yl]urea bis(trifluoroacetate)], the IC50 in assay [1] was 0.027 µM; in assay [2], 0.765 µM; in assay [3], greater than 10 µM; against TYK2, 0.887 µM. Further, in assay [4], the “ALK % of inhibition” value came out at 12%.
`O=C(Nc1ccc2cc1CCc1cncc(c1)Nc1ncc(Cl)c(n1)N2)N[C@H]1CCN(C(=O)c2ccn[nH]2)C1` [Example B268, N-[6-Chloro-2,4,8,18,22-pentaazatetracyclo[14.3.1.1(3,7).1(9,13)]docosa-1(20),3(22),4,6,9(21),10,12,16,18-nonaen-12-yl]-N′-[(3S)-1-(1H-pyrazol-5-ylcarbonyl)pyrrolidin-3-yl]urea bis(trifluoroacetate)]: the IC50 in assay [1] was 0.0098 µM; in assay [2] it was 0.273 µM; in assay [3] it was greater than 10 µM; on TYK2 it was 0.541 µM. Moreover, the “ALK % of inhibition” value in assay [4] was 16%.
For `Cn1cc(C(=O)N2CC[C@H](NC(=O)Nc3ccc4cc3CCc3cncc(c3)Nc3ncc(Cl)c(n3)N4)C2)cn1` [Example B269, N-[6-Chloro-2,4,8,18,22-pentaazatetracyclo[14.3.1.1(3,7).1(9,13)]docosa-1(20),3(22),4,6,9(21),10,12,16,18-nonaen-12-yl]-N′-{(3S)-1-[(1-methyl-1H-pyrazol-4-yl)carbonyl]pyrrolidin-3-yl}urea bis(trifluoroacetate)], the IC50 was 0.013 µM in assay [1], 0.409 µM in assay [2], greater than 10 µM in assay [3] and 0.727 µM against TYK2. The “ALK % of inhibition” value in assay [4] came out at 10%.
On the same counts, the results for `O=C(Nc1ccc2cc1CCc1cncc(c1)Nc1ncc(Cl)c(n1)N2)N[C@H]1CCN(C(=O)c2cc(C3CC3)on2)C1` [Example B270, N-[6-Chloro-2,4,8,18,22-pentaazatetracyclo[14.3.1.1(3,7).1(9,13)]docosa-1(20),3(22),4,6,9(21),10,12,16,18-nonaen-12-yl]-N′-{(3S)-1-[(5-cyclopropylisoxazol-3-yl)carbonyl]pyrrolidin-3-yl}urea bis(trifluoroacetate)] are 0.02 µM, 0.279 µM, greater than 10 µM, 0.607 µM and 10%.
With `O=C(Nc1ccc2cc1CCc1cncc(c1)Nc1ncc(Cl)c(n1)N2)N[C@H]1CCN(C(=O)c2ccno2)C1` [Example B271, N-[6-Chloro-2,4,8,18,22-pentaazatetracyclo[14.3.1.1(3,7).1(9,13)]docosa-1(20),3(22),4,6,9(21),10,12,16,18-nonaen-12-yl]-N′-[(3S)-1-(isoxazol-5-ylcarbonyl)pyrrolidin-3-yl]urea bis(trifluoroacetate)], the IC50 in assay [1] is 0.0087 µM; in assay [2] it was 0.44 µM; in assay [3], greater than 10 µM; against TYK2 it was 0.847 µM. Besides, the “ALK % of inhibition” value in assay [4] is 10%.

The IC50 is the concentration needed to halve the response being measured.

These data come from patent US8871753B2, “Macrocyclic compounds and their use as kinase inhibitors” (Incyte Corporation, priority 2008, dated 2014).
